Test results from PubChem BioAssay (NCI).
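Test compounds were applied to cells in 96-well plates for 48 hours at 5 doses. TGI: concentration producing complete growth inhibition.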

What was measured:
Assay in all cases: inhibition of tumour cell growth, NCI panel, 48 h
A498 renal = test system: A498 renal
RPMI-8226 leukemia = test system: RPMI-8226 leukemia
NCI-H226 lung = test system: NCI-H226 lung
SK-MEL-2 melanoma = test system: SK-MEL-2 melanoma
NCI-H23 lung = test system: NCI-H23 lung
HOP-62 NSCLC = test system: HOP-62 NSCLC
EKVX NSCLC = test system: EKVX NSCLC
KM12 colon = test system: KM12 colon
KM20L2 colon = test system: KM20L2 colon
SW-620 colon = test system: SW-620 colon
K-562 leukemia = test system: K-562 leukemia
SNB-75 CNS = test system: SNB-75 CNS
SF-539 CNS = test system: SF-539 CNS
HCT-116 colon = test system: HCT-116 colon
A549 NSCLC = test system: A549 NSCLC
SK-MEL-5 melanoma = test system: SK-MEL-5 melanoma
786-0 renal = test system: 786-0 renal
TK-10 renal = test system: TK-10 renal
SF-295 CNS = test system: SF-295 CNS
UO-31 renal = test system: UO-31 renal
RXF 393 renal = test system: RXF 393 renal
HT29 colon = test system: HT29 colon
OVCAR-5 ovarian = test system: OVCAR-5 ovarian
LOX IMVI melanoma = test system: LOX IMVI melanoma
CAKI-1 renal = test system: CAKI-1 renal
MALME-3M melanoma = test system: MALME-3M melanoma
UACC-257 melanoma = test system: UACC-257 melanoma
OVCAR-4 ovarian = test system: OVCAR-4 ovarian
SK-OV-3 ovarian = test system: SK-OV-3 ovarian
ACHN renal = test system: ACHN renal
M19-MEL melanoma = test system: M19-MEL melanoma
SK-MEL-28 melanoma = test system: SK-MEL-28 melanoma
CCRF-CEM leukemia = test system: CCRF-CEM leukemia
XF 498 CNS = test system: XF 498 CNS
IGROV1 ovarian = test system: IGROV1 ovarian
OVCAR-8 ovarian = test system: OVCAR-8 ovarian
HCC-2998 colon = test system: HCC-2998 colon
HOP-18 NSCLC = test system: HOP-18 NSCLC
DMS 114 small cell lung = test system: DMS 114 small cell lung
HCT-15 colon = test system: HCT-15 colon
COLO 205 colon = test system: COLO 205 colon
LXFL 529 NSCLC = test system: LXFL 529 NSCLC
HL-60(TB) leukemia = test system: HL-60(TB) leukemia
DMS 273 small cell lung = test system: DMS 273 small cell lung
SF-268 CNS = test system: SF-268 CNS
RXF-631 renal = test system: RXF-631 renal
OVCAR-3 ovarian = test system: OVCAR-3 ovarian
M14 melanoma = test system: M14 melanoma
NCI-H522 lung = test system: NCI-H522 lung
HOP-92 NSCLC = test system: HOP-92 NSCLC
NCI-H460 lung = test system: NCI-H460 lung
UACC-62 melanoma = test system: UACC-62 melanoma
SNB-19 CNS = test system: SNB-19 CNS
SNB-78 CNS = test system: SNB-78 CNS
DLD-1 colon = test system: DLD-1 colon
U251 CNS = test system: U251 CNS
MOLT-4 leukemia = test system: MOLT-4 leukemia
SN12C renal = test system: SN12C renal

Measured: TGI

O=C(O)C(CO)N=Cc1nc(-c2ccccc2)oc1O (stereo not given)
not listed: MOLT-4 leukemia | SN12C renal
> 100 µM: all other assays above

N#CC(C(=O)C(N)=O)c1ccccc1Cl (stereo not given)
not listed: HOP-62 NSCLC | NCI-H522 lung | HOP-92 NSCLC | SNB-78 CNS
> 100 µM: all other assays above
